Test results taken from publication PMC5929572, “Nucleobases and corresponding nucleosides display potent antiviral activities against dengue virus possibly through viral lethal mutagenesis” (PLoS Neglected Tropical Diseases, 2018).

Tests used:
[1] = test system: DENV-2; assay: Titer reduction assay in Huh-7 cells, plaque assay on Vero cells; assay type: cell-based, DENV-2 New Guinea C strain; settings: Dengue virus, DENV2, m.o.i. 0.2, 72 h
Experimental: (§1) Huh-7 cells were seeded in 12-well plates at a density of 4×10^5 cells per well in 1 mL culture medium. The next day, cells were washed and inoculated with DENV at a multiplicity of infection (m.o.i.) of 0.2 in 500μl infection medium (MEM containing 2% FBS and 10 mM HEPES). The inoculum was removed after 1h, cells were washed with PBS and then incubated in 1 mL MEM, 2% FBS, 1% pen/strep plus compound for 72 h. Viral supernatants were clarified by centrifugation for 5 min at 1500×g and aliquoted and stored at -80°C. Viral titers were determined using a plaque assay on Vero cells. Briefly, confluent Vero cell monolayers in 24-well plates were incubated at 37°C for 1 h with duplicate 300 μl samples of 10-fold serial dilutions of viral supernatants. The cells were then washed to remove unbound viral particles and overlaid with 500ul MEM containing 1.3% methylcellulose, 5% FBS and 10mM HEPES. After 5 days of incubation at 37°C and 5% CO2, cells were washed with PBS, fixed, and stained using 1% Giemsa. Infectious virus titer (pfu/mL) was determined using the following formula: number of plaques × dilution factor × (1/inoculation volume). The viral titer was presented as the mean of duplicate samples from a dilution yielding approximately 20–50 plaques per well.

[2] = Cell viability assay (MTS) in Huh-7 cells; assay type: cell-based; settings: human
Experimental: The sensitivity of the cell lines to the compounds was examined using the 3-(4,5-dimethylthiazol-2-yl)-5-(3-carboxymethoxyphenyl)-2-(4-sulfophenyl)-2H-tetrazolium (MTS)-based tetrazolium reduction CellTiter 96 Aqueous Non-Radioactive cell proliferation assay (Promega G5430). The compounds were initially tested at 10 and 50 μM final concentrations. Each plate also contained DMSO alone, medium alone, and an inhibitory compound, 6. DENV replicon or Huh-7 cells were plated at a density of 1,500 or 8 × 10^3 cells, respectively, per well in 96-well plates containing 100 μl of culture medium overnight. Compounds were added to triplicate wells in culture medium and incubated for an additional 72 h. MTS reagent was then added to each well and incubated at 37°C in a humidified 5% CO2 atmosphere. The plates were read at various time points at a wavelength of 490 nm using a Molecular Devices M5e plate reader. Mean values of triplicate wells were determined and compared to the mean value for the wells that received DMSO alone. For compounds selected for dose-response experiments, the CC50 was determined by comparing cell viability for eight serial dilutions of the compound and DMSO treated cells using GraphPad Prism software.

[3] = Cell viability assay (MTS) in DENV replicon cells; assay type: cell-based, baby hamster; settings: hamster, DENV replicon cells (BHK pD2-hRucPac-2ATG30), DENV replicon BHK cells, MTS, 72 h
[4] = test system: DENV-2; assay: Virus passage in presence of compound, supernatant titer by plaque assay; assay type: cell-based, DENV-2 New Guinea C strain; settings: 3b 500 μM, Huh-7, passages 4 and 5; limit of detection 3.3 pfu/mL
Experimental: as §1, with “After 5 days of incubation at 37°C and 5% CO2, cells were washed with PBS, fixed, and stained using 1% Giemsa.” left out, “The viral titer was presented as the mean of duplicate samples from a dilution yielding approximately 20–50 plaques per well.” left out
(§2) Virus was passaged on Huh-7 cells supplemented with 200 μM 3a, 500 μM 3b or DMSO (0.5%). […] The virus titer in the harvested supernatant was determined by plating ten-fold serial dilutions onto single wells of a 24-well plate. […] Supernatant titer was determined from a single well where there were approximately 20–50 plaques when possible. […]

[5] = test system: DENV-2; assay: Virus passage in presence of compound, genome copy number by RT-qPCR (NS5); assay type: cell-based, DENV-2 New Guinea C strain; settings: 3b 500 μM, Huh-7, passage 5; limit of detection 30 copies
Experimental: For qPCR determination of viral genome copy number, viral RNA was isolated from 140 μL of drug-treated or DMSO-treated infected culture supernatant using QIAamp Viral RNA mini kit (Qiagen), following manufacturer’s protocol. Viral RNA was quantified using the TaqMan RNA-to-CT 1-Step qPCR Kit (Applied Biosystems). Primers used for qPCR were 5’-[…]-3’ (forward) and 5’-[…]-3’ (reverse) amplifying a region numbering 8928–8988 in the genome (numbering starting from the beginning of genome, accession number KM204118). The qPCR FAM probe sequence is 5’-[…]-3’. Serial 10-fold dilutions of plasmid containing the NS5 gene of DENV were used to generate a standard curve for the quantification of viral RNA genome copy number based on cycle threshold (CT) values. […] Sequences were aligned over a 980-base region that had adequate quality sequencing reads for all clones. Only mutations present in both the forward and reverse reads of a clone were counted. All incidence-based determinants of mutation frequency (Mf min, Mf max, Mfe) were calculated as described.
as §2

[6] = test system: DENV-2; assay: Sequence analysis of prM/E region clones from passaged virus (mutation frequency); assay type: cell-based, DENV-2 New Guinea C strain
Experimental: For qPCR determination of viral genome copy number, viral RNA was isolated from 140 μL of drug-treated or DMSO-treated infected culture supernatant using QIAamp Viral RNA mini kit (Qiagen), following manufacturer’s protocol. Viral RNA was quantified using the TaqMan RNA-to-CT 1-Step qPCR Kit (Applied Biosystems). Primers used for qPCR were 5’-[…]-3’ (forward) and 5’-[…]-3’ (reverse) amplifying a region numbering 8928–8988 in the genome (numbering starting from the beginning of genome, accession number KM204118). The qPCR FAM probe sequence is 5’-[…]-3’. Serial 10-fold dilutions of plasmid containing the NS5 gene of DENV were used to generate a standard curve for the quantification of viral RNA genome copy number based on cycle threshold (CT) values. The limit of detection for NS5 plasmid dilutions was 30 copies (S1 Fig). […] Statistical analysis via GraphPad Prism 5 software. To obtain sequence data from viral RNA isolated at each passage, cDNA was generated via M-MLV reverse transcriptase and random hexamers (New England Biolab Inc.) per manufacturer’s instructions. An approximately 1600-base fragment covering membrane protein (prM) and envelop protein gene (E) of DENV-2 viral genome was amplified using PfuUltra II Fusion HS DNA polymerase (Agilent) with primers prMEfor (5'- […]-3') and prMErev (5'- […] -3'). PCR products were purified using Qiaquick PCR purification kit (Qiagen) and then digested with EcoRI and ligated into pcDNA3.1 for sequencing. Sequence for approximately 40–50 individual clones per sample was obtained from the University of Minnesota Genomics Center. Sequences were aligned over a 980-base region that had adequate quality sequencing reads for all clones. Only mutations present in both the forward and reverse reads of a clone were counted. All incidence-based determinants of mutation frequency (Mf min, Mf max, Mfe) were calculated as described.
Virus was passaged on Huh-7 cells supplemented with 200 μM 3a, 500 μM 3b or DMSO (0.5%). Huh-7 cells were seeded in 12-well plates and inoculated with DENV-2 as described for Titer reduction experiments above except an m.o.i. of 0.01 was used. After 3 days of compound treatment, 50 μL of the harvested supernatant was used to inoculate fresh Huh-7 cells in the continued presence of compound. The virus titer in the harvested supernatant was determined by plating ten-fold serial dilutions onto single wells of a 24-well plate. The wells were washed and overlaid as described in the Titer reduction assay above. If no plaques were obtained in any of the harvested supernatant dilutions, the undiluted supernatant was used. If plaques were not detectable, the virus titer was considered to be at the limit of detection, 1 plaque (3.3 pfu/mL). Supernatant titer was determined from a single well where there were approximately 20–50 plaques when possible. This experiment was repeated three times at the compound concentrations listed.

[7] = passage 2, 3a 200 μM, 3b 500 μM, Huh-7
[8] = passage 3, 3a 200 μM, 3b 500 μM, Huh-7

## NC(=O)c1nccn([C@@H]2O[C@H](CO)[C@@H](O)[C@H]2O)c1=O [Compound 3b]
[1]
  EC50: 60 ± 22 µM
[2]
  CC50 at 72 h: > 1000 µM
[3]
  CC50 at 72 h: > 1000 µM
[4]
  infectious virus in supernatant: undetectable
[5]
  genomic RNA in supernatant: undetectable
[6]; 3a 200 μM passage 4, 3b 500 μM passage 3, p < 0.0001, Mann-Whitney U
  number of mutations per clone compared to DMSO: significant difference
[6]; [7]
  Mf max (maximum mutation frequency): 15.3 per 10,000 nucleotides
  Mf min (minimum mutation frequency): 10.7 per 10,000 nucleotides
  Mfe (entity level mutation frequency): 2.4 ×10^−3
  Number of clones with mutation/total: 22/34
  Number of different mutations: 33
  Number of haplotypes: 22
  Number of total mutations: 47
  Transition A→G, number of mutations: 6
  Transition C→U, number of mutations: 4
  Transition G→A, number of mutations: 6
  Transition U→C, number of mutations: 14
  Transversion G→U, number of mutations: 2
  Transversion U→G, number of mutations: 1
[6]; [8]
  Mf max (maximum mutation frequency): 15.8 per 10,000 nucleotides
  Mf min (minimum mutation frequency): 4.7 per 10,000 nucleotides
  Mfe (entity level mutation frequency): 2.2 ×10^−3
  Number of clones with mutation/total: 22/35
  Number of different mutations: 15
  Number of haplotypes: 17
  Number of total mutations: 50
  Transition A→G, number of mutations: 4
  Transition C→U, number of mutations: 6
  Transition G→A, number of mutations: 1
  Transition U→C, number of mutations: 3
  Transversion U→A, number of mutations: 1
